Tests used:
Format in all cases: in vivo
[1] = tested on: endogenous Nicotiana benthamiana Argonaute-1 (AGO1) gene; assay: AGO1 anti-sense with PDS anti-sense, systemic bleaching (Example 33); details: PDS 25 nanomoles; AGO1 50 nanomoles of each of 14; combined applied on separate leaves
Procedure: Nicotiana benthamiana plants were treated using a procedure similar to that described in Example 12. Polynucleotide solution (or mixed polynucleotides in the case of AGO1) were prepared in 0.01% (v/v) Silwet L-77 and 2% (w/v) ammonium sulfate in 5 millimolar sodium phosphate, pH 6.8. Two fully expanded leaves per plant were dipped into 0.1% Silwet L-77 solution freshly made with ddH2O for a few seconds, and allowed to dry. About 30 minutes later, 20 microliters of polynucleotide solution was applied to each of the two pre-treated leaves. For PDS, each of 5 plants received 25 nanomoles of the PDS anti-sense polynucleotide (SEQ ID NO:34); for AGO1, each of 5 plants received 50 nanomoles of each of the 14 AGO1 anti-sense polynucleotides (SEQ ID NOS:300-313); for PDS and AGO combined treatments, each of 5 plants received 25 nanomoles of the PDS anti-sense polynucleotide (SEQ ID NO:34) and 50 nanomoles of each of the 14 AGO1 anti-sense polynucleotides (SEQ ID NOS:300-313) applied on separate leaves. Paired control plants were treated with buffer (0.01% (v/v) Silwet L-77 and 2% (w/v) ammonium sulfate in 5 millimolar sodium phosphate, pH 6.8). No difference was observed between plants treated with the AGO1 anti-sense polynucleotides and the plants treated with buffer alone.

[2] = tested on: Nicotiana benthamiana phytoene desaturase; assay: Topical oligonucleotides/polynucleotides on tobacco, PDS bleaching and chlorophyll (Example 10)
Procedure: The following procedure was used for all assays described in this example. Four-week old Nicotiana benthamiana plants were used in all assays. Plants were treated with 0.1% Silwet L-77 solution freshly made with ddH2O. Two fully expanded leaves per plant (one cotyledon, one true leaf) were dipped into the Silwet L-77 solution for a few seconds, and allowed to dry for 15-30 minutes before application of the polynucleotide composition. Final concentration for each oligonucleotide or polynucleotide was 25 microM (in 0.01% Silwet L-77, 5 mM sodium phosphate buffer, pH 6.8) unless otherwise stated. 20 microliters of the solution was applied to the top surface of each of the two pre-treated leaves to provide a total of 40 microliters (1 nmol oligonucleotide or polynucleotide) for each plant. Leaf bleaching was observed 3 days post treatment.
FIG. 13 illustrates phenotypes observed at day 12 after treatment in another assay of the effect from twelve combinations of polynucleotides or oligonucleotides (see Table 4). Table 4 also lists observations of visible bleaching of the plants at day 5 after treatment and the results of chlorophyll measurements taken at days 7 and 12 after treatment. Chlorophyll measurements are an indication of suppression of the target gene phytoene desaturase, and measurements were taken at 6 spots on the apical area, focussing on visibly bleached leaves or (in plants without visible bleaching) on leaves in equivalent locations on the plants; lower chlorophyll measurement values indicate suppression of phytoene desaturase.

[3] = tested on: endogenous PDS, EPSPS, or RuBisCO genes from Nicotiana benthamiana; assay: PDS, EPSPS, RuBisCO anti-sense polynucleotides on Nicotiana benthamiana, plant height (Example 33); details: PDS 25 nanomoles, EPSPS and RuBisCO 50 nanomoles of each per plant
Procedure: Nicotiana benthamiana plants were treated using a procedure similar to that described in Example 12. Polynucleotide solution (or mixed polynucleotides in the case of EPSPS and RuBisCO) were prepared in 0.01% (v/v) Silwet L-77 and 2% (w/v) ammonium sulfate in 5 millimolar sodium phosphate, pH 6.8. Two fully expanded leaves per plant were dipped into 0.1% Silwet L-77 solution freshly made with ddH2O for a few seconds, and allowed to dry. About 30 minutes later, 20 microliters of polynucleotide solution, was applied to each of the two pre-treated leaves. For PDS, each of 5 plants received 25 nanomoles of the PDS anti-sense polynucleotide (SEQ ID NO:34); for EPSPS, each of 5 plants received 50 nanomoles of each EPSPS anti-sense polynucleotide (SEQ ID NOS:279-284); and for RuBisCO, each of 5 plants received 50 nanomoles of each RuBisCO anti-sense polynucleotide (SEQ ID NOS:288-295). Paired control plants were treated with buffer (0.01% (v/v) Silwet L-77 and 2% (w/v) ammonium sulfate in 5 millimolar sodium phosphate, pH 6.8).

[4] = tested on: Glyphosate-resistant Palmer amaranth plants (33, 36, or 57 copies EPSPS); assay: Spermine, spermidine or ammonium sulfate with dsRNA then glyphosate (Example 35, FIG. 39); details: 10 mM spermidine alone
Procedure: The effect of the polyamine cations spermine (N,N′-bis(3-aminopropyl)butane-1,4-diamine) and spermidine (N-(3-aminopropyl)butane-1,4-diamine) on herbicidal activity of topically applied polynucleotides (RNA) on glyphosate-resistant Palmer amaranth plants was investigated. […] The dsRNA polynucleotide solutions were prepared with either 1 or 10 millimolar spermine or spermidine or 2% ammonium sulfate, in a 10 millimolar sodium phosphate (pH 6.8) buffer. Control solutions (without polynucleotides) were prepared with either 1 or 10 millimolar spermine or spermidine or 2% ammonium sulfate, in a 10 millimolar sodium phosphate (pH 6.8) buffer. Glyphosate-resistant Palmer amaranth plants (33, 36, or 57 copies EPSPS) were pre-sprayed with 1% Silwet L-77. The dsRNA polynucleotide solutions (11.6 grams/acre) or buffer solutions were applied as drops on four lower fully expanded leaves of glyphos ate resistant Palmer amaranth by pipetting. Two days following polynucleotide treatment the plants were sprayed with glyphosate (3360 g acid equivalent per hectare of Roundup® WeatherMAX® brand herbicide).

Row | Molecule | systemic bleaching / difference from buffer [1] | bleaching of apical leaves (FIG. 15) ([2]; another assay) | bleaching of apical leaves (FIG. 14) ([2]; topical treatment) | plant height (FIG. 36) ([3]; 12 days (PDS and EPSPS) or 10 days (RuBisCO) after treatment) | other phenotype [3] | plant outcome, 33-copy [4]
1 | PDS 21-mer anti-sense ssDNA: SEQ ID NO:34 (antisense CATCTCCTTTAATTGTACTGC; DNA, backbone not given here) | displayed systemic bleaching | strong bleaching | Strong bleaching | severe stunting | bleaching | –
2 | NCCCCNCCCN [spermidine, N-(3-aminopropyl)butane-1,4-diamine] | – | – | – | – | – | stunted

Reference: patent US20130047297A1, “POLYNUCLEOTIDE MOLECULES FOR GENE REGULATION IN PLANTS” (priority 2010, published 2013)
